In PMC5148695 (Neuropharmacology, 2016):

Target: α4β3δ GABAA receptor (Homo sapiens, UniProt P28472+P48169)
Test: whole-cell patch clamp, potentiation of GABA EC20 current
Format: cell-based

Chain of α4β3δ GABAA receptor (P48169 36-554): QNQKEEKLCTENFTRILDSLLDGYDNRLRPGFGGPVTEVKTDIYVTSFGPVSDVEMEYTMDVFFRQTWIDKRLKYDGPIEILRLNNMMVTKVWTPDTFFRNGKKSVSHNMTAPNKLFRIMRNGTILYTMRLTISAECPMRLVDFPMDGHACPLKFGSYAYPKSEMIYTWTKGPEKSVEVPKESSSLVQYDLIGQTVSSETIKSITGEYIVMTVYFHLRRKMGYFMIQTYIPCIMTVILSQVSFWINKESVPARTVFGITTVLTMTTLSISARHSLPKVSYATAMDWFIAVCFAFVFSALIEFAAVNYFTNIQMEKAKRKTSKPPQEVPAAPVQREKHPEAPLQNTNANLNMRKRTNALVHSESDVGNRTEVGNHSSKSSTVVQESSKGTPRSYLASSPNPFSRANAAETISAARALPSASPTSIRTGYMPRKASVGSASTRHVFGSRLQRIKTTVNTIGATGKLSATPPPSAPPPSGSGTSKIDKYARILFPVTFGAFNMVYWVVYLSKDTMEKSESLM
Chain of α4β3δ GABAA receptor (P28472 26-473): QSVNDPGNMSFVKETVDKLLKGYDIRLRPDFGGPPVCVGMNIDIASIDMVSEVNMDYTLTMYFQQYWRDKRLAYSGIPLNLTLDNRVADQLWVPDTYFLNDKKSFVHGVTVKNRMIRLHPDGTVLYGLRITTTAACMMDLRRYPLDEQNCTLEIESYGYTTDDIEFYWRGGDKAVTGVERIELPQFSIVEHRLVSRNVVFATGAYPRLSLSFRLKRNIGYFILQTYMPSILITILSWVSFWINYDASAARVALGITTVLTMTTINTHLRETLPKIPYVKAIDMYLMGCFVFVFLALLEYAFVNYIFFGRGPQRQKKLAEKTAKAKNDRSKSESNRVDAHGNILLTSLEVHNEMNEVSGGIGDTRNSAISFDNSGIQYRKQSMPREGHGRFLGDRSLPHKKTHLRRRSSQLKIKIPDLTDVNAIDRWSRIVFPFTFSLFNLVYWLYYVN
Chain of α4β3δ GABAA receptor (O14764 25-452 partner): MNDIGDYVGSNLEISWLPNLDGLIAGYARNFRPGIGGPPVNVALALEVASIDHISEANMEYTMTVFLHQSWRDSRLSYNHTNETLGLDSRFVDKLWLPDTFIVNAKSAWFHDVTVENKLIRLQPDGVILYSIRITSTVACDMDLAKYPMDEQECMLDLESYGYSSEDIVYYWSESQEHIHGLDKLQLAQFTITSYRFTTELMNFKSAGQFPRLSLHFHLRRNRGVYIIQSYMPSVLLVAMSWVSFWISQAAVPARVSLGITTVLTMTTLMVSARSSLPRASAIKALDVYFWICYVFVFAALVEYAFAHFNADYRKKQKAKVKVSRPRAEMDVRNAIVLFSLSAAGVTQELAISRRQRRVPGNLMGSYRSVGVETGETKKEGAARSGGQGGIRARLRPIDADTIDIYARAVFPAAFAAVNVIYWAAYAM

Q: How did the EC50 turn out when `CC(=O)[C@H]1CC[C@H]2[C@@H]3CC[C@H]4C[C@H](O)CC[C@]4(C)[C@H]3CC[C@]12C` [ALLO] was run?
A: 57 nM
